“And” between values parts separate entries of the source, which are not always exact repeats. Equal entries are not always repeated.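 How tested: cells in 96-well plates exposed to compound for 48 hours at five concentrations. GI50: concentration for 50% inhibition of growth. TGI denotes the concentration required for complete inhibition of growth.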 A value given as a limit tells only on which side of the number the result lay.

Some test systems named below: SF-295 CNS; ACHN renal; UACC-257 melanoma; A549 NSCLC; MDA-MB-435; UACC-62 melanoma; SR leukemia; SK-MEL-28 melanoma; A498 renal; COLO 205 colon.
Common to all, as to experiment: NCI-60 cell line screen, 48 h

For `NS(=O)(=O)c1cccc(Nc2cc(-c3ccc(F)cc3)[nH]n2)c1`, the GI50 with SF-295 CNS is > 25 µM; with ACHN renal, 13.2 µM; in the assay on UACC-257 melanoma, > 25 µM; in the assay with A549 NSCLC, > 24.1 µM; with MDA-MB-435, > 25 µM; in the assay on UACC-62 melanoma, > 21.1 µM. Further, the GI50 is 12.5 µM in the assay on SR leukemia, > 25 µM in the assay with SK-MEL-28 melanoma, 18.4 µM in the assay with A498 renal and > 25 µM in the assay on COLO 205 colon. The TGI in the assay with SF-295 CNS, in the assay with ACHN renal, in the assay on UACC-257 melanoma, in the assay on A549 NSCLC, in the assay on MDA-MB-435 and in the assay on UACC-62 melanoma was > 25 µM each time. The TGI in the assay on SR leukemia, in the assay with SK-MEL-28 melanoma, with A498 renal and in the assay with COLO 205 colon was > 25 µM in each case.
Regarding `CN(N=O)c1ccc(/C=C/c2ccnc3ccccc23)cc1`, the TGI in the assay on SF-295 CNS, in the assay on ACHN renal, with UACC-257 melanoma, with A549 NSCLC, in the assay on MDA-MB-435 and in the assay on UACC-62 melanoma was > 100 µM throughout. Moreover, the TGI in the assay with SR leukemia, in the assay on SK-MEL-28 melanoma, in the assay on A498 renal and in the assay on COLO 205 colon was > 100 µM in each case.
Consider `CC1(C)C2CC(=O)C1(C)C(OCc1ccccc1)C2Br` (stereo not given), for which the TGI with SF-295 CNS is 70.9 µM and > 100 µM; with ACHN renal, > 100 µM; in the assay on A549 NSCLC it was > 100 µM; with MDA-MB-435, > 100 µM and 84.7 µM; with UACC-62 melanoma it was > 100 µM; with SR leukemia it was 52.8 µM and 66.1 µM. In addition, the TGI in the assay on SK-MEL-28 melanoma was > 100 µM; in the assay on A498 renal, 62.2 µM and > 100 µM. Besides, the GI50 in the assay on ACHN renal was 38.5 µM and 93.9 µM; in the assay with SK-MEL-28 melanoma, 15.1 µM and > 100 µM; with A498 renal it was 24.8 µM and > 100 µM.
`COc1ccc2c(c1O)[C@@]13CCCC=C1[C@@H](C2)N(C)CC3`: the TGI in the assay with SF-295 CNS, in the assay on ACHN renal, in the assay on UACC-257 melanoma, in the assay with A549 NSCLC, with MDA-MB-435 and in the assay on UACC-62 melanoma was > 100 µM throughout. The TGI was 81.5 µM in the assay on SR leukemia, > 100 µM in the assay with SK-MEL-28 melanoma and > 100 µM with COLO 205 colon.
For the compound `COc1cc(/C=N\Nc2ccccc2)ccc1OC(=O)c1ccccc1`, the GI50 is 1.92 µM in the assay on SF-295 CNS; 0.675 µM with ACHN renal; 7.12 µM in the assay on UACC-257 melanoma; 4.01 µM in the assay with A549 NSCLC; 1.25 µM in the assay on MDA-MB-435; 0.311 µM in the assay with UACC-62 melanoma. Moreover, the GI50 in the assay with SR leukemia was 16.5 µM; in the assay on SK-MEL-28 melanoma, 19.2 µM; with A498 renal, 20 µM; in the assay on COLO 205 colon it was 6.48 µM. In addition, the TGI with SF-295 CNS was 10.7 µM; in the assay on ACHN renal, > 100 µM; with UACC-257 melanoma, > 100 µM; in the assay with A549 NSCLC, 37.5 µM; in the assay on MDA-MB-435, > 100 µM; in the assay with UACC-62 melanoma, 4.47 µM. The TGI in the assay with SR leukemia is > 100 µM; in the assay with SK-MEL-28 melanoma it was > 93.1 µM; with A498 renal it was > 92.9 µM; with COLO 205 colon it was 25.5 µM.
Take `CCCCCn1sc(=O)n(Cc2ccc(CNC(=O)C(C)c3ccc(CC(C)C)cc3)cc2)c1=O` (stereo not given): the GI50 in the assay with SF-295 CNS was 1.74 µM; with ACHN renal, 0.498 µM; in the assay with UACC-257 melanoma, 1.48 µM; in the assay on A549 NSCLC, 1.65 µM; in the assay on MDA-MB-435, 0.876 µM; in the assay on UACC-62 melanoma, 1.3 µM. In addition, the GI50 in the assay with SR leukemia was 0.452 µM; with SK-MEL-28 melanoma, 1.43 µM; in the assay with A498 renal it was 1.46 µM; with COLO 205 colon, 0.598 µM. Besides, the TGI worked out at 3.92 µM with SF-295 CNS; 1.73 µM in the assay on ACHN renal; 3.02 µM with UACC-257 melanoma; 4.26 µM in the assay with A549 NSCLC; 2.17 µM in the assay on MDA-MB-435; 2.62 µM in the assay with UACC-62 melanoma. Besides, the TGI with SR leukemia worked out at 5.77 µM; with SK-MEL-28 melanoma it was 2.75 µM; in the assay on A498 renal, 2.81 µM; with COLO 205 colon it was 2.08 µM.
Take `COc1ccc(/C(=C(\c2ccccc2)[N+](=O)[O-])c2ccc(OCCN3CCCC3)cc2)cc1`: the GI50 in the assay with SF-295 CNS was 1.93 µM; with ACHN renal, 6.32 µM; with UACC-257 melanoma, 2.04 µM; in the assay with A549 NSCLC it was 4.68 µM; in the assay on MDA-MB-435, 2.85 µM; with UACC-62 melanoma, 1.93 µM. For the same compound, the GI50 in the assay on SR leukemia is 1.49 µM; with SK-MEL-28 melanoma, 1.77 µM; in the assay on A498 renal, 2.19 µM; in the assay on COLO 205 colon it was 1.46 µM. Besides, the TGI in the assay on SF-295 CNS turned out to be 5.39 µM; in the assay with ACHN renal, 18.6 µM; in the assay on UACC-257 melanoma it was 4.64 µM; with A549 NSCLC it was 17.3 µM; in the assay on MDA-MB-435, 10.5 µM; with UACC-62 melanoma, 4.24 µM. The TGI with SR leukemia was determined as 5.05 µM; with SK-MEL-28 melanoma it was 3.38 µM; in the assay on A498 renal, 10.9 µM; in the assay on COLO 205 colon it was 3.14 µM.
`CC[C@H](C)[C@H](NC(=O)CN(C)C)C(=O)N(C)[C@H](C[C@@H](OC(C)=O)c1nc(C(=O)NC23C4C5C2C2C3C4C52C(=O)OC)cs1)C(C)C` (stereo not given in full): the GI50 was 0.552 µM in the assay on SF-295 CNS; 2.25 µM with ACHN renal; 4.31 µM in the assay with UACC-257 melanoma; 2.12 µM in the assay with A549 NSCLC; 0.0409 µM with MDA-MB-435; 0.19 µM in the assay on UACC-62 melanoma. For the same compound, the GI50 is 0.038 µM with SR leukemia, 1.38 µM in the assay with SK-MEL-28 melanoma, 0.993 µM in the assay with A498 renal and 0.247 µM in the assay on COLO 205 colon. In addition, the TGI with SF-295 CNS is > 33.2 µM; in the assay on ACHN renal, > 33.2 µM; in the assay with UACC-257 melanoma, > 33.2 µM; in the assay on A549 NSCLC, > 33.2 µM; in the assay with MDA-MB-435 it was 1.07 µM; in the assay with UACC-62 melanoma, > 33.2 µM. The TGI with SR leukemia is > 33.2 µM; in the assay with SK-MEL-28 melanoma, > 33.2 µM; with A498 renal it was 21.5 µM; in the assay with COLO 205 colon, 5.53 µM.

These data come from PubChem BioAssay (NCI).
